From publication PMC10374582, “A BAHD-type acyltransferase concludes the biosynthetic pathway of non-bitter glycoalkaloids in ripe tomato fruit” (Nature Communications, 2023)

Legend:
SlGAME36 = molecular target: T1, SlGAME36 (Solanum lycopersicum, UniProt A0A3Q7HQH1); assay: LC-MS steady-state kinetics; assay type: biochemical; conditions: pH 7.5, 30 °C
T1 construct: gene LOC101247356; pET28/pET28b, E. coli BL21 (DE3), Ni-NTA purified His-tagged protein
From the text: (§1) LC-MS steady-state kinetics on SlGAME36 | higher catalytic efficiency with hydroxytomatine (native substrate from tomato | hydroxysolamargine (SGA substrate from eggplant | preferred specificity toward acetyl CoA over butyryl CoA

[1] = tested on: C[C@@H]1CNC2(O[C@H]3C[C@H]4[C@@H]5CC[C@H]6C[C@@H](O[C@@H]7O[C@H](CO)[C@H](O[C@@H]8O[C@H](CO)[C@@H](O)[C@H](O[C@@H]9OC[C@@H](O)[C@H](O)[C@H]9O)[C@H]8O[C@@H]8O[C@H](CO)[C@@H](O)[C@H](O)[C@H]8O)[C@H](O)[C@H]7O)CC[C@]6(C)[C@H]5CC[C@]4(C)[C@H]3[C@@H]2C)C(O)C1; assay: LC-MS steady-state kinetics; assay type: biochemical, Solanum lycopersicum; conditions: 500 µM acetyl CoA, pH 7.5, 30 °C
From the text: as §1

SlGAME40 = molecular target: T2, SlGAME40 (Solanum lycopersicum, UniProt P10967); assay: LC-MS product detection, sequential one-tube assay; assay type: biochemical; conditions: acetoxytomatine formed in situ by GAME31 and GAME36; α-ketoglutarate, ascorbate, Fe2+; pH 7.5, 30 °C
T2 construct: gene ACO3; purified recombinant from E. coli

hydroxysolamargine
Km (SlGAME36; 500 µM acetyl CoA): 7.89 µM

CCCC(=O)SCCNC(=O)CCNC(=O)[C@H](O)C(C)(C)COP(=O)(O)OP(=O)(O)OC[C@H]1O[C@@H](n2cnc3c(N)ncnc32)[C@H](O)[C@@H]1OP(=O)(O)O [butyryl CoA]
Km (SlGAME36; 100 µM hydroxytomatine): 60.4 µM

SlGAME36 (Solanum lycopersicum)
Km [1]: 14.43 µM
kcat [1]: 60.25 s⁻¹

CC(=O)SCCNC(=O)CCNC(=O)[C@H](O)C(C)(C)COP(=O)(O)OP(=O)(O)OC[C@H]1O[C@@H](n2cnc3c(N)ncnc32)[C@H](O)[C@@H]1OP(=O)(O)O [acetyl CoA]
Km (SlGAME36; 100 µM hydroxytomatine): 24.2 µM

CC(=O)OC1C[C@H](C)CNC12O[C@H]1C[C@H]3[C@@H]4CC[C@H]5C[C@@H](O[C@@H]6O[C@H](CO)[C@H](O[C@@H]7O[C@H](CO)[C@@H](O)[C@H](O[C@@H]8OC[C@@H](O)[C@H](O)[C@H]8O)[C@H]7O[C@@H]7O[C@H](CO)[C@@H](O)[C@H](O)[C@H]7O)[C@H](O)[C@H]6O)CC[C@]5(C)[C@H]4CC[C@]3(C)[C@H]1[C@@H]2C (stereo partly drawn) [acetoxytomatine]
LC-MS product detection, sequential one-tube assay (SlGAME40): Sequential assays produced explicitly the expected pathway intermediates
